In BindingDB's records for doi:10.1021/acs.biochem.6b00733 (Utrecht University, 2016):

molecular target: T1, Nicotinamide N-methyltransferase (Homo sapiens, UniProt P40261); assay: NNMT Enzymatic Activity Assay; settings: pH 8.6; 37 °C
T1 sequence (P40261 whole entry): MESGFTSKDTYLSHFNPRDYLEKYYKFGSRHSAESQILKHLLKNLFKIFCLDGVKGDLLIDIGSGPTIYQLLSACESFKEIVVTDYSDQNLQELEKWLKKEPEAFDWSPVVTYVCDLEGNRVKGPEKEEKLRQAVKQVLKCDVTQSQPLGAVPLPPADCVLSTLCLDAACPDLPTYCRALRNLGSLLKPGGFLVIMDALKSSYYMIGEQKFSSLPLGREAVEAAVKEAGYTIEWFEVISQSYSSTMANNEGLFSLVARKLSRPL
Method: Enzyme activity assays were performed as previously described with NNMT (16.25 ug/mL, 550 nM) in 50 mM Tris buffer (pH 8.6) containing 1 mM DTT (all final concentrations). The enzyme was incubated with the substrate pyridine compound for 5 min at 37 °C using a heat block before the reaction was initiated by addition of AdoMet (for substrates that were not soluble in water, stocksolutions were prepared in DMSO and diluted to a final DMSO concentration of <5% in the assay mixture). […] For these screens, the final reagent concentrations were 100 uM AdoMet and 2.0 mM substrate and a series of time points were initially investigated (5, 15, 30, and 60 min). At each time point, 15 uL aliquots of the reaction mixture were taken and added to 70 uL of acetonitrile, which served to quench the reaction by causing precipitation of the enzyme.

Row | Compound | Ki [mM]
1 | c1ccc2c(c1)CCNC2 [1,2,3,4-tetrahydroisoquinoline] | 4.7
2 | NC(=O)c1cnc2ccccc2c1 [quinoline 3-carboxamide] | 9.7
3 | NC(=S)c1cccnc1 [thionicotinamide] | 6.6
